The text below walks through data of ChEMBL document CHEMBL1201862, “PubChem BioAssay data set” (2004).

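In this assay, cells in 96-well plates receive the compound at five concentrations for 48 hours. Endpoints are linearly interpolated between the surrounding concentrations. GI50 = concentration required for 50% inhibition of growth.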 Active and inactive are the calls of the source. Rule as the data show it: active = GI50 up to about 1.1 µM and inactive = higher. Bounds are passed on as bounds.

Test systems include ACHN; EKVX; HOP-62; IGROV-1; K562; MDA-MB-435; MOLT-4; NCI-H23; NCI-H460; NCI/ADR-RES; OVCAR-8; RPMI-8226; RXF 393; SF-295; SF-539; SK-OV-3; SN12C; SR; TK-10; MDA-N.
Common to all, as to assay: inhibition of tumour cell growth, NCI panel, 48 h

Consider `CC(=O)OC12COC1CC(O)C1(C)C(=O)C(O)C3=C(C)C(O)CC(O)(C(OC(=O)c4ccccc4)C21)C3(C)C` (configuration not stated), for which the GI50 with ACHN is 90.2 µM (inactive); in the test on EKVX, > 86.5 µM (inactive); in the test on HOP-62 it was 16.6 µM (inactive); in the test with IGROV-1, 7.23 µM (inactive); in the test with K562, 1.58 µM (inactive); with MDA-MB-435, 0.408 µM (active). The GI50 in the test on MOLT-4 was 6.7 µM (inactive); with NCI-H23 it was 3.36 µM (inactive); in the test on NCI-H460, 2.92 µM (inactive); with NCI/ADR-RES, > 100 µM (inactive); with OVCAR-8, 6.98 µM (inactive); with RPMI-8226, 1.25 µM (inactive). Moreover, the GI50 was > 65.6 µM (inactive) in the test on RXF 393; 26.3 µM (inactive) in the test with SF-295; 1.16 µM (inactive) in the test with SF-539; 2.31 µM (inactive) in the test with SK-OV-3; 4.94 µM (inactive) with SN12C; 5.12 µM (inactive) in the test on SR. The GI50 with TK-10 is > 74 µM (inactive).

On to `CCOC(=O)/C(C#N)=C(/NNc1ccccc1)c1ccncc1C(=O)O`, for which the GI50 in the test on ACHN was > 21.5 µM (inactive); in the test with EKVX it was > 100 µM (inactive); with HOP-62, > 100 µM (inactive); in the test on IGROV-1, > 100 µM (inactive); in the test on K562, 3.28 µM (inactive); in the test with MDA-MB-435, 5.68 µM (inactive). Moreover, the GI50 in the test on MDA-N was > 40.8 µM (inactive); with MOLT-4, 5.09 µM (inactive); in the test on NCI-H23, > 100 µM (inactive); with NCI-H460 it was > 28.1 µM (inactive); in the test with OVCAR-8, > 32.4 µM (inactive); in the test on RPMI-8226 it was > 56.8 µM (inactive). The GI50 is > 100 µM (inactive) in the test with RXF 393; 5.47 µM (inactive) with SF-295; 24.7 µM (inactive) in the test with SF-539; > 100 µM (inactive) in the test with SK-OV-3; > 100 µM (inactive) in the test on SN12C; > 100 µM (inactive) in the test with TK-10.

`NS(=O)(=O)c1nnc(NS(=O)(=O)c2ccccc2[N+](=O)[O-])s1`: the GI50 in the test with ACHN, with EKVX, in the test on HOP-62, with IGROV-1, in the test with K562 and in the test with MDA-MB-435 was > 100 µM (inactive) throughout. Moreover, the GI50 in the test on MOLT-4, in the test with NCI-H23, with NCI-H460, in the test on NCI/ADR-RES, in the test with RPMI-8226 and with RXF 393 was > 100 µM (inactive) each time. For the same compound, the GI50 with SF-295, with SF-539, in the test on SK-OV-3, in the test with SR and with TK-10 was > 100 µM (inactive) throughout.

`O=C(O)c1ccc2c(c1)Cc1cc([N+](=O)[O-])ccc1-2`: the GI50 in the test with ACHN was > 100 µM (inactive); in the test with EKVX it was > 100 µM (inactive); in the test on HOP-62, > 100 µM (inactive); in the test with IGROV-1, > 100 µM (inactive); in the test with K562 it was 73.5 µM (inactive); with MDA-MB-435, > 100 µM (inactive). The GI50 in the test on MOLT-4 is > 100 µM (inactive); in the test on NCI-H23 it was > 100 µM (inactive); in the test on NCI-H460, > 100 µM (inactive); in the test on NCI/ADR-RES, > 100 µM (inactive); in the test on OVCAR-8, 59.7 µM (inactive); in the test with RPMI-8226, 0.546 µM (active). Besides, the GI50 in the test with SF-295 was 90.8 µM (inactive); with SF-539, > 100 µM (inactive); in the test with SK-OV-3, > 100 µM (inactive); with SN12C, > 100 µM (inactive); with SR, 86.1 µM (inactive); with TK-10, 61 µM (inactive).

For `NC(=O)NC(=O)Nc1ccc(Br)cc1`, the GI50 in the test with ACHN is > 9.62 µM (inactive); in the test with EKVX, 14.7 µM (inactive); with HOP-62, > 15.8 µM (inactive); with IGROV-1 it was 16.7 µM (inactive); in the test on K562 it was 3.3 µM (inactive); in the test with MDA-MB-435, 9.57 µM (inactive). For the same compound, the GI50 in the test on MDA-N is 50.9 µM (inactive); in the test on MOLT-4, 3.78 µM (inactive); in the test with NCI-H23 it was > 14.5 µM (inactive); in the test with NCI-H460, > 8.61 µM (inactive); with NCI/ADR-RES it was > 30.8 µM (inactive); in the test with OVCAR-8 it was > 13.7 µM (inactive). The GI50 in the test on RPMI-8226 is 10.3 µM (inactive); in the test on SF-295, 14.7 µM (inactive); in the test on SF-539, > 17.3 µM (inactive); in the test on SK-OV-3 it was > 100 µM (inactive); in the test with SN12C, > 67.5 µM (inactive); with TK-10, > 35.9 µM (inactive).

For the compound `CCOC(=O)N1c2ccccc2S(=O)(=O)c2ccccc21`, the GI50 with ACHN, in the test on EKVX, in the test with HOP-62, in the test on IGROV-1, in the test with K562 and with MDA-MB-435 was > 100 µM (inactive) in each case. Also, the GI50 with MDA-N, in the test with MOLT-4, in the test on NCI-H23, with NCI-H460, in the test on NCI/ADR-RES and in the test with OVCAR-8 was > 100 µM (inactive) throughout. The GI50 in the test on RXF 393, in the test with SF-295, in the test with SF-539, with SK-OV-3, in the test on SN12C and with TK-10 was > 100 µM (inactive) throughout.

`CC(C)(C)OC/C=C(/CO)[C@@H]1C=C[C@H](O)C1`: the GI50 in the test on ACHN, in the test with EKVX, in the test with HOP-62, in the test with K562, with MDA-MB-435 and with MDA-N was > 100 µM (inactive) in each case. The GI50 with MOLT-4, in the test on NCI-H23, in the test with NCI-H460, in the test with NCI/ADR-RES, in the test on RPMI-8226 and in the test on SF-295 was > 100 µM (inactive) throughout. The GI50 with SF-539, in the test on SK-OV-3 and in the test on SN12C was > 100 µM (inactive) throughout.

For `c1cc(-c2ncc(-c3ccc4c(c3)CCCO4)o2)ccn1`, the GI50 is 22.3 µM (inactive) in the test with ACHN; 18.6 µM (inactive) with EKVX; 18.1 µM (inactive) in the test with HOP-62; 15.6 µM (inactive) in the test with IGROV-1; 1.85 µM (inactive) in the test on K562; 2.36 µM (inactive) with MDA-MB-435. For the same compound, the GI50 was 2.48 µM (inactive) in the test on MDA-N; 3.06 µM (inactive) in the test on MOLT-4; 14.7 µM (inactive) with NCI-H23; 3.94 µM (inactive) in the test on NCI/ADR-RES; 16.7 µM (inactive) with OVCAR-8; 8.47 µM (inactive) in the test on RPMI-8226. In addition, the GI50 is 8.83 µM (inactive) with RXF 393; 16.6 µM (inactive) in the test with SF-295; 9.38 µM (inactive) in the test on SF-539; 15.6 µM (inactive) in the test with SK-OV-3; 25.8 µM (inactive) in the test with SN12C; 7.43 µM (inactive) in the test on TK-10.

On to `NC(=O)c1cn(C2OC(CO)C(O)C2O)c2nc[n+]([O-])c(N)c12` (configuration not stated), for which the GI50 in the test on ACHN was 0.0351 µM (active); with EKVX, 1.21 µM (inactive); in the test with HOP-62 it was 0.133 µM (active); with IGROV-1 it was 1.05 µM (active); in the test on K562, 0.34 µM (active); in the test with MDA-MB-435 it was 0.167 µM (active). Also, the GI50 with MOLT-4 was 0.104 µM (active); in the test on NCI-H23 it was 0.121 µM (active); with NCI-H460 it was 0.446 µM (active); with NCI/ADR-RES it was 0.107 µM (active); in the test with OVCAR-8, 0.094 µM (active); with RPMI-8226 it was 0.266 µM (active). Further, the GI50 is 0.564 µM (active) in the test with RXF 393; 0.262 µM (active) with SF-295; 0.321 µM (active) with SF-539; 0.0906 µM (active) with SK-OV-3; 0.0912 µM (active) with SN12C; 0.0509 µM (active) with SR. Also, the GI50 with TK-10 was 0.0324 µM (active).

With `O=C(Nc1ccc(Cl)cc1)C(=O)C1=C(O)c2ccccc2OC1`, the GI50 with ACHN, in the test with EKVX, in the test with IGROV-1, with K562, in the test with MDA-MB-435 and with MDA-N was > 100 µM (inactive) throughout. Besides, the GI50 with MOLT-4, in the test on NCI-H23, in the test on NCI-H460, with NCI/ADR-RES, in the test with OVCAR-8 and with RPMI-8226 was > 100 µM (inactive) in each case. Besides, the GI50 in the test on SF-295, in the test on SF-539, in the test with SK-OV-3, with SN12C and in the test on TK-10 was > 100 µM (inactive) each time.

As to `S=C(S)N1CCN(c2ccc(Cl)c(Cl)c2)CC1`, the GI50 in the test on ACHN is 37.2 µM (inactive); in the test with EKVX, 12.9 µM (inactive); in the test with HOP-62, 29.5 µM (inactive); in the test with IGROV-1 it was 28.7 µM (inactive); in the test on K562, 19.3 µM (inactive); in the test with MDA-MB-435, 17.6 µM (inactive). In addition, the GI50 was 19.3 µM (inactive) in the test on MDA-N; 41.4 µM (inactive) with NCI/ADR-RES; 46.9 µM (inactive) with OVCAR-8; 19.5 µM (inactive) with RPMI-8226; 56.9 µM (inactive) with RXF 393; 28.7 µM (inactive) with SF-295. Also, the GI50 in the test with SF-539 was 24.3 µM (inactive); with SN12C it was 30.1 µM (inactive); with TK-10 it was 58.6 µM (inactive).
